# Results as given in patent US20210213176A1, “CHEMICAL VAPOR DEPOSITION OF POLYMER COATINGS FOR CONTROLLED DRUG RELEASE, ASSEMBLIES CONTAINING SAME, AND METHODS OF PRODUCTION AND USE THEREOF” (The Board of Regents for the Oklahoma Agricultural and …, priority 2020, published 2021).
# Tests used:
# [1] = system: human smooth muscle cells; conditions: 2.5 μM atorvastatin in medium (Dubuis et al., 2013); cited from earlier work
# smooth muscle cells = conditions: atorvastatin concentration as low as 0.1 μM (Petersen et al., 2013; Baetta et al., 1997); cited from earlier work
# [2] = system: Human coronary artery smooth muscle cells (HCASMC); experiment: MTT cell metabolism assay on nanocoated devices; conditions: PDE31 coated, dose densities up to 100 μg/cm^2
structure (smiles),measurement,setting,value
"CC(C)c1c(C(=O)Nc2ccccc2)c(-c2ccccc2)c(-c2ccc(F)cc2)n1CC[C@@H](O)C[C@@H](O)CC(=O)[O-].CC(C)c1c(C(=O)Nc2ccccc2)c(-c2ccccc2)c(-c2ccc(F)cc2)n1CC[C@@H](O)C[C@@H](O)CC(=O)[O-].[Ca+2] [atorvastatin, Atorvastatin calcium]",viability of human smooth muscle cells,[1],does not suppress the viability
same,growth of smooth muscle cells,smooth muscle cells,effective in suppressing the growth
same,MTT activity of HCASMC with atorvastatin release,[2],no significant difference
